Source: patent publication US20140249147A1, “Substituted Bicyclic Aza-Heterocycles and Analogues as Sirtuin Modulators” (GlaxoSmithKline, LLC, priority 2011, published 2014)

Key:
SIRT1 [1] = molecular target: T1, SIRT1 (Homo sapiens, UniProt Q96EB6); test: TAMRA based mass spectrometry assay of SIRT1 activation; type: biochemical; settings: TAMRA peptide substrate; for Emax: 25 min, percent maximum fold activation relative to control (100%), read-out: TAMRA % Fold Act; for TAMRA EC1.5 (μM): concentration giving 150% activation of SIRT1
T1 sequence (Q96EB6 1-747): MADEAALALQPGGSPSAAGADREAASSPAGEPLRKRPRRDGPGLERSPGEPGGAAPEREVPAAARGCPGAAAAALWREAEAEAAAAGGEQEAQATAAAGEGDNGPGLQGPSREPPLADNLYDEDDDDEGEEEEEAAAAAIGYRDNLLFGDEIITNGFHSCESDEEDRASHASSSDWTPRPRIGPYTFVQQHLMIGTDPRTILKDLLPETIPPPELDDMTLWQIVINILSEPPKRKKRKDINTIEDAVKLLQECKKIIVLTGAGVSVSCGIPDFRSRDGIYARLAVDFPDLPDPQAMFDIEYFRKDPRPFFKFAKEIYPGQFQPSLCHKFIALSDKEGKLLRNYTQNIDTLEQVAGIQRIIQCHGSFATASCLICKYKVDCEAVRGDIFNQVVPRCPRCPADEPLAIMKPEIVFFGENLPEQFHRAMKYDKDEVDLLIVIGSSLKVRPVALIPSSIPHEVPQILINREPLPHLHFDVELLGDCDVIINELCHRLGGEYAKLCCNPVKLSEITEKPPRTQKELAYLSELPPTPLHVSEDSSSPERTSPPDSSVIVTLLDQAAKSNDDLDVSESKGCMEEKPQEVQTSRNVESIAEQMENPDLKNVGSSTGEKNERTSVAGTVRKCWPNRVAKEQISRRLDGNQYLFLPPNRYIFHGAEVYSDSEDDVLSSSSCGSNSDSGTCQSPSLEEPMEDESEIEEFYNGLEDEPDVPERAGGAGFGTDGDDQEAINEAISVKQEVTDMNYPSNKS
Source text: (§1) Mass spectrometry based assays were used to identify modulators of SIRT1 activity. The TAMRA based assay utilized a peptide having 20 amino acid residues as follows: Ac-EE-K(biotin)-GQSTSSHSK(Ac)NleSTEG-K(5TMR)-EE-NH2 (SEQ ID NO: 1), wherein K(Ac) is an acetylated lysine residue and Nle is a norleucine. The peptide was labeled with the fluorophore 5TMR (excitation 540 nm/emission 580 nm) at the C-terminus. The sequence of the peptide substrate was based on p53 with several modifications. In addition, the methionine residue naturally present in the sequence was replaced with the norleucine because the methionine may be susceptible to oxidation during synthesis and purification. The Trp based assay utilized a peptide having an amino acid residues as follows: Ac—R—H—K—K(Ac)—W—NH2 (SEQ ID NO: 2).
The TAMRA based mass spectrometry assay was conducted as follows: 0.5 μM peptide substrate and 120 μM βNAD^+ was incubated with 10 nM SIRT1 for 25 minutes at 25° C. in a reaction buffer (50 mM Tris-acetate pH 8, 137 mM NaCl, 2.7 mM KCl, 1 mM MgCl2, 5 mM DTT, 0.05% BSA). The SIRT1 protein was obtained by cloning the SirT1 gene into a T7-promoter containing vector, which was then transformed and expressed in BL21(DE3) bacterial cells. Test compound was added at varying concentrations to this reaction mixture and the resulting reactions were monitored. After the 25 minute incubation with SIRT1, 10 μL of 10% formic acid was added to stop the reaction. The resulting reactions were sealed and frozen for later mass spec analysis. Determination of the amount of deacetylated substrate peptide formed (or, alternatively, the amount of O-acetyl-ADP-ribose (OAADPR) generated) by the sirtuin-mediated NAD-dependent deacetylation reaction allowed for the precise measurement of relative SIRT1 activity in the presence of varying concentrations of the test compound versus control reactions lacking the test compound.
(§2) A control for inhibition of sirtuin activity was conducted by adding 1 μL of 500 mM nicotinamide as a negative control at the start of the reaction (e.g., permits determination of maximum sirtuin inhibition). A control for activation of sirtuin activity was conducted using 10 nM of sirtuin protein, with 1 μL of DMSO in place of compound, to determine the amount of deacetylation of the substrate at a given time point within the linear range of the assay. This time point was the same as that used for test compounds and, within the linear range, the endpoint represents a change in velocity. For the above assay, SIRT1 protein was expressed and purified as follows. The SirT1 gene was cloned into a T7-promoter containing vector and transformed into BL21(DE3). The protein was expressed by induction with 1 mM IPTG as an N-terminal His-tag fusion protein at 18° C. overnight and harvested at 30,000×g. Cells were lysed with lysozyme in lysis buffer (50 mM Tris-HCl, 2 mM Tris[2-carboxyethyl]phosphine (TCEP), 10 μM ZnCl2, 200 mM NaCl) and further treated with sonication for 10 min for complete lysis. The protein was purified over a Ni-NTA column (Amersham) and fractions containing pure protein were pooled, concentrated and run over a sizing column (Sephadex S200 26/60 global). The peak containing soluble protein was collected and run on an Ion-exchange column (MonoQ). Gradient elution (200 mM-500 mM NaCl) yielded pure protein. This protein was concentrated and dialyzed against dialysis buffer (20 mM Tris-HCl, 2 mM TCEP) overnight. The protein was aliquoted and frozen at −80° C. until further use.
Sirtuin-modulating compounds of Formula (I) that activated SIRT1 were identified using the assay described above and are shown below in Table 1. The EC1.5 values represent the concentration of test compounds that result in 150% activation of SIRT1. The EC1.5 values for the activating compounds of Formula (I) are represented by A (EC1.5<1 μM), B (EC1.5 1-25 μM), C (EC1.5>25 μM). […]

SIRT1 [2] = molecular target: T1, SIRT1; test: Trp mass spectrometry assay of SIRT1 activation; type: biochemical; settings: Trp peptide substrate; for TYP EC1.5 (μM): concentration giving 150% activation of SIRT1; for TYP % Fold Act: percent maximum fold activation relative to control (100%)
Source text: as §1
The Trp mass spectrometry assay was conducted as follows. 0.5 μM peptide substrate and 120 μM βNAD^+ were incubated with 10 nM SIRT1 for 25 minutes at 25° C. in a reaction buffer (50 mM HEPES pH 7.5, […], 1 mM DTT, 0.05% BSA). The SIRT1 protein was obtained by cloning the SirT 1 gene into a T7-promoter containing vector, which was then expressed in BL21(DE3) bacterial cells and purified as described in further detail below. Test compound was added at varying concentrations to this reaction mixture and the resulting reactions were monitored. After the 25 minute incubation with SIRT1, 10 μL of 10% formic acid was added to stop the reaction. The resulting reactions were sealed and frozen for later mass spec analysis. The relative SIRT1 activity was then determined by measuring the amount of O-acetyl-ADP-ribose (OAADPR) formed (or, alternatively, the amount of deacetylated Trp peptide generated) by the NAD-dependent sirtuin deacetylation reaction in the presence of varying concentrations of the test compound versus control reactions lacking the test compound. The degree to which the test agent activated deacetylation by SIRT1 was expressed as EC1.5 (i.e., the concentration of compound required to increase SIRT1 activity by 50% over the control lacking test compound), and Percent Maximum Activation (i.e., the maximum activity relative to control (100%) obtained for the test compound).
as §2
Sirtuin-modulating compounds of Formula (I) that activated SIRT1 were identified using the assay described above and are shown below in Table 1. […]

SMILES | Emax (SIRT1 [1]) [%] | TAMRA EC1.5 (μM) (SIRT1 [1]) | TYP EC1.5 (μM) (SIRT1 [2]) | TYP % Fold Act (SIRT1 [2])
O=C(Nc1nccs1)c1ccc2nnc(-c3cccc(OC(F)(F)F)c3)n2n1 [Compound 1, N-(thiazol-2-yl)-3-(3-(trifluoromethoxy)phenyl)-[1,2,4]triazolo[4,3-b]pyridazine-6-carboxamide] | < 350 | C (EC1.5>25 μM) | B (EC1.5 1-25 μM) | B (Fold Activation <350%)
O=C(Nc1nccs1)c1ccc2nnc(-c3cccc(N4CCOCC4)c3)n2n1 [Compound 5, 3-(3-morpholinophenyl)-N-(thiazol-2-yl)-[1,2,4]triazolo[4,3-b]pyridazine-6-carboxamide] | < 350 | C (EC1.5>25 μM) | C (EC1.5>25 μM) | B (Fold Activation <350%)
Cc1cc(C)nc(NC(=O)c2ccc3nnc(-c4cccc(C(F)(F)F)c4)n3n2)c1 [Compound 8] | < 350 | – | – | B (Fold Activation <350%)
O=C(Nc1ccc2ncc(-c3ccccc3Cl)n2n1)c1cnccn1 [Compound 15] | < 350 | C (EC1.5>25 μM) | C (EC1.5>25 μM) | B (Fold Activation <350%)
O=C(Nc1ccc2ncc(-c3cccc(F)c3)n2n1)c1ncccn1 [Compound 16] | < 350 | C (EC1.5>25 μM) | C (EC1.5>25 μM) | B (Fold Activation <350%)
O=C(Nc1ccc2ncc(-c3cccc(C(F)(F)F)c3)n2n1)c1nccs1 [Compound 18] | < 350 | C (EC1.5>25 μM) | C (EC1.5>25 μM) | B (Fold Activation <350%)
O=C(Nc1ccnc(C(F)(F)F)c1)c1ccc2ncc(-c3cccc(Cl)c3)n2n1 [Compound 19] | < 350 | B (EC1.5 1-25 μM) | C (EC1.5>25 μM) | B (Fold Activation <350%)
O=C(Nc1ccc2ncc(-c3ccccc3F)n2n1)c1ccccn1 [Compound 23] | < 350 | C (EC1.5>25 μM) | C (EC1.5>25 μM) | B (Fold Activation <350%)
O=C(Nc1cccc(N2CCOCC2)n1)c1ccc2ncc(-c3cccc(F)c3)n2n1 [Compound 38] | < 350 | C (EC1.5>25 μM) | C (EC1.5>25 μM) | B (Fold Activation <350%)
O=C(Nc1cccc(N2CCOCC2)n1)c1ccc2ncc(-c3ccccc3Cl)n2n1 [Compound 44] | < 350 | C (EC1.5>25 μM) | C (EC1.5>25 μM) | B (Fold Activation <350%)
O=C(Nc1cccc(N2CCOCC2)n1)c1ccc2ncc(-c3cccc(C(F)(F)F)c3)n2n1 [Compound 48] | ≥ 350 | A (EC1.5<1 μM) | A (EC1.5<1 μM) | B (Fold Activation <350%)

More lines, now with the values ahead:

Emax (SIRT1 [1]) [%] | TAMRA EC1.5 (μM) (SIRT1 [1]) | TYP EC1.5 (μM) (SIRT1 [2]) | TYP % Fold Act (SIRT1 [2]) | SMILES
< 350 | C (EC1.5>25 μM) | C (EC1.5>25 μM) | B (Fold Activation <350%) | O=C(Nc1ccccn1)c1ccc2nnc(-c3cccc(N4CCOCC4)c3)n2n1 [Compound 4]
< 350 | – | – | B (Fold Activation <350%) | O=C(Nc1cccc(C(F)(F)F)n1)c1ccc2nnc(-c3cccc(Cl)c3)n2n1 [Compound 6]
< 350 | C (EC1.5>25 μM) | C (EC1.5>25 μM) | B (Fold Activation <350%) | O=C(Nc1ccc2ncc(-c3cccc(C(F)(F)F)c3)n2n1)c1cnccn1 [Compound 14]
< 350 | C (EC1.5>25 μM) | C (EC1.5>25 μM) | B (Fold Activation <350%) | O=C(Nc1cccc(C(F)(F)F)n1)c1ccc2ncc(-c3ccccc3Cl)n2n1 [Compound 21]
< 350 | C (EC1.5>25 μM) | C (EC1.5>25 μM) | B (Fold Activation <350%) | O=C(Nc1ccc2ncc(-c3ccccc3F)n2n1)c1nccs1 [Compound 22]
